IC50 data for 1 compound are collected here from BindingDB's records for doi:10.1073/pnas.0707365104 (Institut National De La Sant&#163, 2007).

Broadly, the IC50 is the concentration at which inhibition is half-maximal. A lower IC50 goes with greater potency in that assay.

This assay in a line: Inhibition of human telomerase expressed in HEK293T cells treated after telomerase elongation by telomeric repeat amplification protocol assay.

The compound `CN(C)c1ccc(Nc2c3ccc(NC(=O)CCN4CCCC4)cc3nc3cc(NC(=O)CCN4CCCC4)ccc23)cc1` [N,N'-(9-{[4-(dimethylamino)phenyl]amino}acridine-3,6-diyl)bis(3-pyrrolidin-1-ylpropanamide)] had an IC50 of 65 nM.
